The structures appear in SMILES notation. Active and inactive are the calls of the source.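 The calls were made as follows: active = at least one hamster carcinogenic potency value with a tumor site listed for any sex group; inactive = no potency or tumor site yet a negative hamster study.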

In PubChem BioAssay AID1191 (EPA DSSTox, 2008) one finds outcome and Potency data, which are given here for 85 compounds.

The subject of this data set is hamster chronic carcinogenicity bioassay, TD50. Nature of the data set: DSSTox (CPDBAS) Carcinogenic Potency Database Summary Hamster Bioassay Results. The text has this: The Carcinogenic Potency Database (CPDB) is a unique and widely used international resource of the results of over 6500 chronic, long-term animal cancer tests on over 1500 chemical substances. The CPDB provides easy access to the bioassay literature, with qualitative and quantitative analyses of both positive and negative experiments that have been published over the past 50 years in the general literature and by the National Cancer Institute/National Toxicology Program. The CPDB standardizes the diverse literature of cancer bioassays that vary widely in protocol, histopathological examination and nomenclature, and in the published author's choices of what information to provide in their papers. Results are reported in the CPDB for tests in rats, mice, hamsters, dogs, and nonhuman primates, and are based on the most positive result among all experiments for each sex-species. The DSSTox CPDBAS (all species) file incorporates data from the CPDB Summary Tables for the full list of over 1500 chemical substances tested in at least one species. Summary bioassay results for Hamster (TD50, tumor sites, male, female, both sexes) are provided in the CPDB Summary Tables and the DSSTox CPDBAS file for over 80 chemical substances.
TD50 is a standardized quantitative measure of carcinogenic potency (analogous to an LD50) and is reported in the CPDB Summary Table for each species. Activity Score for actives is computed by mapping of LOG10 (1/TD50_Hamster_mmol) activity values spanning range [MIN, MAX] onto Integer 1-100 Activity Score range, where 100 is highest potency and 1 is lowest: Activity Score = 100 * INTEGER[(log10(1/Activity) - MIN)/(MAX - MIN)]. If activity is reported but no TD50_Hamster_mmol value is computed, such as for a mixture, the Activity Score is assigned the activity value "50". […] Target sites are reported for each sex-species group with a positive result in the CPDB on the basis of a positive author's opinion for the particular site, using all results from both the general literature and NCI/NTP bioassays. If a chemical has two or more target sites listed, the results may be from different experiments, and a single site may be a target organ in more than one experiment, as well. Blank entry in TargetSites field indicates no results reported.
On to `CCO`, for which the outcome was “inactive; no positive results”.
Consider `O=Cc1ccco1`, for which the outcome was “inactive; no positive results”.
Still for that read-out and setting: then `O=NN1CCCC1c1ccc[n+]([O-])c1` (stereo not given), with “inactive; no positive results”.
Regarding `C=CCN(CC=C)N=O`, the Potency was 1.54 mg/kg/day.
Take `O=CNc1nc(-c2ccc([N+](=O)[O-])o2)cs1`: the Potency was 9.77 mg/kg/day.
As for `CN(C)N`, the Potency is 124 mg/kg/day.
On the same count and under the same terms, then `C=CCN(CC(C)=O)N=O`, with 1.19 mg/kg/day.
In the case of `Clc1ccc(C(c2ccc(Cl)cc2)C(Cl)(Cl)Cl)cc1`, the outcome is “inactive; no positive results”.
Still for that read-out and setting: for `CN(CCCC(=O)c1cccnc1)N=O` the value was “inactive”.
For `CNN`, the Potency was 11.5 mg/kg/day.
As to `O=c1ccc2ccccc2o1`, the outcome is “inactive; no positive results”.
The same measure, in the same setting: for `S=C=NCCc1ccccc1` the value was “inactive”.
With `O=CNNc1nc(-c2ccc([N+](=O)[O-])o2)cs1`, the Potency was 16.6 mg/kg/day.
On the same count and under the same terms, then `CC(=O)Nc1nc(-c2ccc([N+](=O)[O-])o2)cs1`, with 8.91 mg/kg/day.
Take `O=[N+]([O-])c1ccc2c3c(cccc13)CC2`: the result was inactive.
On to `CCOC(N)=O`, for which the Potency was 65.2 mg/kg/day.
Consider `CC(=O)CN(N=O)C(N)=O`, for which the Potency is 0.13 mg/kg/day.
As to `CCOC(=O)N(C)N=O`, the Potency was 0.127 mg/kg/day.
On to `NNC(=O)c1ccncc1`, for which the outcome was “inactive; no positive results”.
On to `NC(=O)N(CCc1ccccc1)N=O`, for which the Potency was 0.964 mg/kg/day.
Consider `O=NO`, for which the outcome was “inactive; no positive results”.
Regarding `O=NN1CCCC1`, the Potency was 14.2 mg/kg/day.
Consider `CC(C)(Oc1ccc(C2CCCc3ccccc32)cc1)C(=O)O` (stereo not given), for which the outcome was “inactive; no positive results”.
With `CN(N)C=O`, the Potency was 5.8 mg/kg/day.
With `O=C(O)c1ccncc1`, the outcome was “inactive; no positive results”.
Turning to `N#[N+]c1ccccc1`, the outcome is “inactive; no positive results”.
In the case of `CC1CN(N=O)CC(C)N1C` (stereo not given), the Potency is 1.32 mg/kg/day.
With `CC=O`, the Potency is 565 mg/kg/day.
For the compound `CC(C)(OCc1ccc(-c2ccc(Cl)cc2)cc1)C(=O)O`, the outcome is “inactive; no positive results”.
As for `CN(C)C(=O)Cl`, the Potency is 0.625 mg/kg/day.
Consider `N=C1C=CC(=C(c2ccc(N)cc2)c2ccc(N)cc2)C=C1`, for which the outcome was “inactive; no positive results”.
Take `CC1CN(N=O)CC(C)O1` (stereo not given): the Potency is 2 mg/kg/day.
For the compound `ClC=C(Cl)Cl`, the outcome is “inactive; no positive results”.
On to `CNNC`, for which the Potency is 0.179 mg/kg/day.
Still for that read-out and setting: for `[O-][Br+2]([O-])O` the value was 533 mg/kg/day.
Take `COCCl`: the Potency is 16.4 mg/kg/day.
In the case of `C=C(C)C(=O)OC`, the outcome was “inactive; no positive results”.
Consider `CC(=O)N(O)c1ccc2c(c1)Cc1ccccc1-2`, for which the Potency was 2.1 mg/kg/day.
Same read-out and setting: then `O=NN1CCC1`, with 7.14 mg/kg/day; and `O=NN1CCCCC1`, with 83.3 mg/kg/day.
Take `O=NN(CCO)CC(O)CO` (stereo not given): the outcome was inactive.
Still for that read-out and setting: for `ClC1=C(Cl)[C@]2(Cl)[C@@H]3[C@@H]4C[C@@H]([C@H]5O[C@@H]45)[C@@H]3[C@@]1(Cl)C2(Cl)Cl` the value was “inactive; no positive results”.
Same read-out and setting: then `O=S(=O)([O-])[O-].[Cd+2]`, with “inactive; no positive results”; and `CC(C)OC(=O)Nc1ccccc1`, with “inactive; no positive results”.
In the case of `CN(C)CCN(C)N=O`, the Potency is 3.83 mg/kg/day.
With `Nc1ncn[nH]1`, the outcome is “inactive; no positive results”.
In the case of `O=c1c(O)c(-c2ccc(O)c(O)c2)oc2cc(O)cc(O)c12`, the outcome was “inactive; no positive results”.
For `O=NN1CCOCC1`, the Potency was 3.57 mg/kg/day.
As for `COc1ccc(O)c(C(C)(C)C)c1`, the outcome was “inactive; no positive results”.
The same measure, in the same setting: then `CCC1(c2ccccc2)C(=O)NC(=O)NC1=O`, with “inactive; no positive results”; and `C[C@@H]1O[C@@H](OC[C@H]2O[C@@H](Oc3c(-c4ccc(O)c(O)c4)oc4cc(O)cc(O)c4c3=O)[C@H](O)[C@@H](O)[C@@H]2O)[C@H](O)[C@H](O)[C@H]1O`, with “inactive; no positive results”.
Take `CCN(N=O)C(=O)NCCO`: the Potency is 1.04 mg/kg/day.
Take `Cc1cc(=O)[nH]c(=S)[nH]1`: the Potency is 53.4 mg/kg/day.
Take `CC(=O)CN(CC(O)CO)N=O` (stereo not given): the Potency is 0.754 mg/kg/day.
With `F[B-](F)(F)F`, the outcome is “inactive; no positive results”.
`NC(=O)/C(=C\c1ccc([N+](=O)[O-])o1)c1ccco1`: the Potency is 164 mg/kg/day.
With `CN(C)CCN(Cc1cccs1)c1ccccn1`, the outcome was “inactive; no positive results”.
The same measure, in the same setting: then `C=CC(=C)Cl`, with “inactive; no positive results”.
In the case of `CC(O)CN(CC(O)CO)N=O` (stereo not given), the Potency was 1.59 mg/kg/day.
As to `CC1=CC(=C(c2ccc(N)cc2)c2ccc(N)cc2)C=CC1=N`, the outcome was “inactive; no positive results”.
Consider `Cc1cccc(Nc2cc(Cl)nc(SCC(=O)O)n2)c1C`, for which the outcome is “inactive; no positive results”.
Same read-out and setting: then `[Cd+2].[Cl-].[Cl-]`, with “inactive; no positive results”.
On to `CC(=O)CN(N=O)C(=O)NCCCl`, for which the Potency was 0.338 mg/kg/day.
As to `CCN(N=O)C(=O)NCC(C)=O`, the Potency was 0.443 mg/kg/day.
In the case of `c1ccc(Nc2ccc3ccccc3c2)cc1`, the outcome was “inactive; no positive results”.
Regarding `ClC(Cl)=C(c1ccc(Cl)cc1)c1ccc(Cl)cc1`, the Potency was 202 mg/kg/day.
On the same count and under the same terms, then `CC(=O)CN(CCO)N=O`, with 0.997 mg/kg/day; and `O=S(=O)(O)O`, with 118 mg/kg/day.
In the case of `O=C(C1CCCCC1)N1CC(=O)N2CCc3ccccc3C2C1` (stereo not given), the outcome was “inactive; no positive results”.
For `C=CCl`, the Potency is 39.4 mg/kg/day.
`O=C(O)c1ccc(O)c(O)c1`: the outcome was inactive.
Turning to `O=NN1CCOC1`, the Potency was 0.798 mg/kg/day.
Same read-out and setting: then `OCC1CO1` (stereo not given), with 56.1 mg/kg/day; and `Clc1c(Cl)c(Cl)c(Cl)c(Cl)c1Cl`, with 4.96 mg/kg/day.
Turning to `CN(Cc1cnc2nc(N)nc(N)c2n1)c1ccc(C(=O)N[C@@H](CCC(=O)O)C(=O)O)cc1`, the outcome is “inactive; no positive results”.
On the same count and under the same terms, for `C=O` the value was “inactive; no positive results”.
Regarding `CC1CN(N=O)CC(C)N1N=O` (stereo not given), the Potency was 3.1 mg/kg/day.
On the same count and under the same terms, then `NN`, with 4.16 mg/kg/day; and `CN(CC(O)CO)N=O` (stereo not given), with 0.94 mg/kg/day.
For the compound `CC(C)OC(=O)Nc1cccc(Cl)c1`, the outcome was “inactive; no positive results”.
Still for that read-out and setting: then `COC1=CC(=O)C[C@@H](C)[C@]12Oc1c(Cl)c(OC)cc(OC)c1C2=O`, with “inactive; no positive results”.
Turning to `CC(=O)Nc1ccc2c(c1)Cc1ccccc1-2`, the Potency is 17.4 mg/kg/day.
The same measure, in the same setting: then `CC1CN(N=O)C(=O)O1` (stereo not given), with 0.172 mg/kg/day.
Turning to `NNCCO`, the outcome is “inactive; no positive results”.
Consider `O=NN1CCCC1c1cccnc1` (stereo not given), for which the Potency was 10.8 mg/kg/day.
